# Measured values from paper PMC9319939, “Siccanin Is a Dual-Target Inhibitor of Plasmodium falciparum Mitochondrial Complex II and Complex III” (Pharmaceuticals, 2022).
# What was measured:
# [1] = target: mammalian complex I and III (Sus scrofa, UniProt F1RNZ1+P24964); assay: NADH-cytochrome c reductase activity in porcine mitochondria; format: biochemical
# Method: Porcine mitochondria were prepared as described previously. NADH-cytochrome c (NADH-cyt c) activity was measured at 25 °C in 1 mL of the reaction mixture containing 1 mM MgCl2, 2 mM KCN, and 20 μM cytochrome c in 30 mM potassium phosphate buffer, pH 7.5. Activity was measured by recording the absorbance change of cytochrome c at 550 nm after the reaction was initiated by the addition of 20 μM NADH. Various concentrations of siccanin dissolved in DMSO were added to reaction mixtures 5 min before the initiation of the reactions. Selectivity was calculated as the ratio of mammalian to P. falciparum IC50s.
# [2] = target: T1, dihydroorotate dehydrogenase (DHODH) (Plasmodium falciparum, UniProt Q08210); assay: DHODH activity, crude mitochondrial fraction, DCIP reduction; format: biochemical
# T1 construct: used as crude mitochondrial fraction for all enzymatic assays; endogenous in cells; host or cells: P. falciparum 3D7 trophozoite-stage parasites, crude mitochondrial fraction
# T1 sequence (Q08210 24-569): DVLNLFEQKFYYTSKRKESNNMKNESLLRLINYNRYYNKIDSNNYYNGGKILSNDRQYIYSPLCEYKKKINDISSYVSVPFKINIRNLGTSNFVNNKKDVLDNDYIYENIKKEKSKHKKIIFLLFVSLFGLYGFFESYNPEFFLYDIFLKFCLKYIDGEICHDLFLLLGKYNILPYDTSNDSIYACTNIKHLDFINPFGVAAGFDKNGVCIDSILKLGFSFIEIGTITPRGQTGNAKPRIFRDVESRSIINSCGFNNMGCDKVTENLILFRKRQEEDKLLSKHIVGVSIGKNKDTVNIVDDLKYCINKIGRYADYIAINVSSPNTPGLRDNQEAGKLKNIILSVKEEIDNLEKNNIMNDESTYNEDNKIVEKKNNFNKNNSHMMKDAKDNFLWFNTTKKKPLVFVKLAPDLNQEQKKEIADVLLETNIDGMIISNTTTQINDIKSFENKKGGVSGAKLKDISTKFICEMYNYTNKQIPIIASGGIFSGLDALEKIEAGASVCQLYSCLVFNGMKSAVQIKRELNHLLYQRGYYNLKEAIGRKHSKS
# Method: A synchronized parasite culture was grown for 64 h and a crude mitochondrial fraction was prepared from trophozoite-stage cells (as confirmed by Giemsa staining). Infected red blood cells were collected by centrifugation at 800× g for 5 min at 4 °C and incubated for 5 min at room temperature with 40 mL of 0.075% (w/v) saponin in AIM buffer (120 mM KCl, 20 mM NaCl, 10 mM PIPES (1,4-piperazinediethanesulfonic acid) buffer [pH 6.7], 1 mM MgCl2, 5 mM glucose). Released parasites were collected by centrifugation at 2780× g for 7 min at 4 °C and washed three times with AIM buffer. P. falciparum was suspended in MSE buffer [225 mM mannitol, 75 mM sucrose, 0.1 mM ethylenediaminetetraacetic acid (EDTA), 3 mM Tris-HCl buffer, pH 7.4] containing 1 mM phenylmethylsulphonyl fluoride, and disrupted by nitrogen cavitation at 1200 psi using a 4639 Cell Disruption Bomb (Parr Instrument Company; Moline, IL, USA). The unbroken cells and cell debris were removed by centrifugation at 800× g for 5 min at 4 °C. The supernatant was centrifuged at 5000× g for 20 min at 4 °C. […]
# (§1) Complex II, DHODH, MQO, NDH2, G3PDH, and dihydroorotate-cytochrome c (DHO-cyt c) reductase activities were measured, as described previously, using a V-660 spectrophotometer (JASCO; Tokyo, Japan). Briefly, complex II activity was measured at 25 °C in a 1 mL reaction mixture containing 45 μM 2,6-dichlorophenolidophenol (DCIP), 100 μM ubiquinone-2 (UQ2), and 2 mM KCN in 50 mM potassium phosphate buffer, pH 8.0. DHODH, MQO, and G3PDH activities were measured at 25 °C in 1 mL of the reaction mixture containing 45 μM DCIP, 100 μM UQ2, and 2 mM KCN in 30 mM Tris-HCl buffer, pH 8.0. Complex II, DHODH, MQO, and G3PDH activities were measured by monitoring the change in absorbance at 600 nm (reflecting DCIP reduction) after the reaction was initiated by adding 10 mM succinate, 500 μM dihydroorotate, 10 mM malate, or 500 μM glycerol-3-phosphate, respectively. NDH2 activity was measured at 25 °C in 1 mL of the reaction mixture containing 100 µM UQ1 and 2 mM KCN in 50 mM potassium phosphate buffer, pH 8.0. […]
# [3] = tested on: type-II NADH dehydrogenase (NDH2); assay: NDH2 activity, crude mitochondrial fraction, NADH at 340 nm; format: biochemical, Plasmodium falciparum
# Method: A synchronized parasite culture was grown for 64 h and a crude mitochondrial fraction was prepared from trophozoite-stage cells (as confirmed by Giemsa staining). Infected red blood cells were collected by centrifugation at 800× g for 5 min at 4 °C and incubated for 5 min at room temperature with 40 mL of 0.075% (w/v) saponin in AIM buffer (120 mM KCl, 20 mM NaCl, 10 mM PIPES (1,4-piperazinediethanesulfonic acid) buffer [pH 6.7], 1 mM MgCl2, 5 mM glucose). Released parasites were collected by centrifugation at 2780× g for 7 min at 4 °C and washed three times with AIM buffer. […]
# as §1, with “Complex II, DHODH, MQO, and G3PDH activities were measured by monitoring the change in absorbance at 600 nm (reflecting DCIP reduction) after the reaction was initiated by adding 10 mM succinate, 500 μM dihydroorotate, 10 mM malate, or 500 μM glycerol-3-phosphate, respectively.” left out
# Chain of mammalian complex I and III (F1RNZ1 entry or part of it): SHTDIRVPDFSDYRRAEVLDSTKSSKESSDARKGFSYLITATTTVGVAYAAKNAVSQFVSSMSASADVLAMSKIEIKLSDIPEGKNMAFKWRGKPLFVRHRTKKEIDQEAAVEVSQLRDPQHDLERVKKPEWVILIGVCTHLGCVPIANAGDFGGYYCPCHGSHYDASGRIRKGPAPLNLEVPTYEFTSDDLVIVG
# Chain of mammalian complex I and III (P24964 whole entry): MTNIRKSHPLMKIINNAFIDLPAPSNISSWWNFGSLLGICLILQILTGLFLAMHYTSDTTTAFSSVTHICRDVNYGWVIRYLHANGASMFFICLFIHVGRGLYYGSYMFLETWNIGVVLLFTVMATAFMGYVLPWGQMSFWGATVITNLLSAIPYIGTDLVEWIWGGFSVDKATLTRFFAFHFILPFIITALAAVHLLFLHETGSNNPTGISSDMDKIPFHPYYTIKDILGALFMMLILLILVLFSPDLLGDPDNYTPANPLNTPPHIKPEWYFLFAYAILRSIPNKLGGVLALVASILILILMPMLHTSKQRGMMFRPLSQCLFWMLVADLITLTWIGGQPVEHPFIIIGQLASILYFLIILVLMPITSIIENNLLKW
# Chain of mammalian complex I and III (F1SKM0 entry or part of it, further chain): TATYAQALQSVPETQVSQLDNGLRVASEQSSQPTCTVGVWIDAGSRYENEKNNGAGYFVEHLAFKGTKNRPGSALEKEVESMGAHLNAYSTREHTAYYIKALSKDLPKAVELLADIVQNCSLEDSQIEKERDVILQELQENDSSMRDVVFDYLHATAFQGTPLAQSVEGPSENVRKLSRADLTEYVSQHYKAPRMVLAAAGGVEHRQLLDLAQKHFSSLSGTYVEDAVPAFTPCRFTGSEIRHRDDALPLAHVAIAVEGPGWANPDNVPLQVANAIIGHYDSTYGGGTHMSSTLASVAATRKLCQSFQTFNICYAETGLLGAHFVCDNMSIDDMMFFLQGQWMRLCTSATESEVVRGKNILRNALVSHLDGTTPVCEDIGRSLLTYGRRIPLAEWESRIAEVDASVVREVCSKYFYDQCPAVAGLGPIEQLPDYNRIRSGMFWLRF
compound,measurement,setting,value
Cc1cc(O)c2c(c1)O[C@@]1(C)CC[C@H]3C(C)(C)CCC[C@]34CO[C@@H]2[C@H]41 [Siccanin],Effect on mammalian complex I and III,[1]; concentrations as high as 500 µM,did not inhibit
same,IC50,"[1]; read-out: Siccanin IC50, Mammal, Complex III, NADH-cytochrome c reductase, porcine mitochondria",> 500 µM
same,Effect on DHODH activity,[2]; 10 µM,did not inhibit
same,Effect on DHODH activity,[2]; 60 μM,does not inhibit
same,remaining activity at 10 µM,"[2]; siccanin 10 μM, read-out: Relative residual activity of DHODH",101 ± 8.1%
same,Effect on NDH2 activity,[3]; 10 µM,did not inhibit
same,Relative residual activity of NDH2,[3]; siccanin 10 μM,101.8 ± 8.1%
